Assay results as given in patent US12180193B2, “Accelerating fibrosarcoma protein degrading compounds and associated methods of use” (Arvinas Operations, Inc., priority 2020, dated 2024).

Experiments:
BRAF V600E = biological target: T1, BRAF V600E (Homo sapiens, UniProt P15056, V600E); test: Cellular assay of target protein degradation, T-Rex 293 cells stably transfected with HA-BRAF_V600E (HA immunofluorescence, high content imaging); assay type: cell-based; settings: T-Rex 293 HA-BRAF V600E; for DC50: half maximal degradation, read-out: BRaf V600E DC50; for Dmax: maximum degradation observed
T1 construct: expressed in transfected cells
T1 sequence (P15056 whole entry V600E): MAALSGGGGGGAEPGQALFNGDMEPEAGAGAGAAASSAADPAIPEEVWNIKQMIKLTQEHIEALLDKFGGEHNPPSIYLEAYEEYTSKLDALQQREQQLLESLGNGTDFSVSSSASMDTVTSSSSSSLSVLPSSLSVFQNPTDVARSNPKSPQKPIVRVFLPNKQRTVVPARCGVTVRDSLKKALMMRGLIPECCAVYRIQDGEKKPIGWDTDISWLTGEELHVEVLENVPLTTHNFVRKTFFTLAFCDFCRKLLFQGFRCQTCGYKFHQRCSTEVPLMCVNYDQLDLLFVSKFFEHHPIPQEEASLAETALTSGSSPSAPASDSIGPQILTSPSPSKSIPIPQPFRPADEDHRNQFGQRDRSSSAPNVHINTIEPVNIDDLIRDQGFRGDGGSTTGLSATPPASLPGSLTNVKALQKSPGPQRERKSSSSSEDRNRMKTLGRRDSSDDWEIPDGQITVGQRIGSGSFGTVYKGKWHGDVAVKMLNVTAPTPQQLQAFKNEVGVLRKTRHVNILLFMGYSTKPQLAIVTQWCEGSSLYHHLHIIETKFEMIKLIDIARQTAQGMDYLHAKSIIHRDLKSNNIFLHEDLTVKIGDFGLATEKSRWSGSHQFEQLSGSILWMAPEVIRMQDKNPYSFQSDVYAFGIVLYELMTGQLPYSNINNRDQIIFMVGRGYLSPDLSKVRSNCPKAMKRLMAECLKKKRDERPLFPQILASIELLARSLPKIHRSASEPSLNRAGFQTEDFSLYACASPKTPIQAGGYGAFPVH
Method in brief: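 Read-out is anti-HA immunofluorescence quantified by high-content imaging, giving half-maximal degradation concentration (DC50) and maximum degradation (Dmax, percent of control). Cells expressed the construct under 1 ng/mL doxycycline and received compound (1 μM to 0.1 nM final, 0.1% DMSO) for 24 h at 37 °C.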

BRAF G466V = biological target: T2, BRAF G466V (Homo sapiens, UniProt P15056, G466V); test: Cellular assay of target protein degradation, T-Rex 293 cells stably transfected with HA-BRAF G466V (HA immunofluorescence, high content imaging); assay type: cell-based; settings: T-Rex 293 HA-BRAF G466V; for DC50: half maximal degradation, read-out: BRaf G466V DC50; for Dmax: maximum degradation observed
T2 construct: expressed in transfected cells
T2 sequence (P15056 whole entry G466V): as the sequence (P15056 whole entry V600E) above, with G466V, E600V counted along it
Method in brief: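 First, stably transfected T-Rex 293 cells were plated with 0.75 ng/mL doxycycline and grown for 24 hours. Next, compound (final 30 nM to 3 pM, 0.1% DMSO) was added for another 24 hours at 37° C. Finally, cells were fixed, stained for HA and imaged.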

Structure (SMILES) | DC50 (BRAF V600E) | Dmax (BRAF V600E) | DC50 (BRAF G466V) | Dmax (BRAF G466V)
O=C1CC[C@@H](NC(=O)c2ccc(N3CCN(CC4CCN(c5ccc(-c6cnc7[nH]cc(C(=O)c8c(F)ccc(NS(=O)(=O)N9CC[C@@H](F)C9)c8F)c7c6)cc5)CC4)CC3)cc2F)C(=O)N1 [Compound 342, 4-(4-{[1-(4-{3-[2,6-difluoro-3-({[(3R)-3-fluoropyrrolidin-1-yl]sulfonyl}amino)benzoyl]-1H-pyrrolo[2,3-b]pyridin-5-yl}phenyl)piperidin-4-yl]methyl}piperazin-1-yl)-N-[(3R)-2,6-dioxopiperidin-3-yl]-2-fluorobenzamide] | 50 to 500 nM | < 35% | 1 to 10 nM | 35 to 70%
COc1cc(N2CC3(CN(CC4CCN(c5ccc(-c6cnc7[nH]cc(C(=O)c8c(F)ccc(NS(=O)(=O)N9CC[C@@H](F)C9)c8F)c7c6)cc5)CC4)C3)C2)ccc1C(=O)N[C@@H]1CCC(=O)NC1=O [Compound 344, 4-(6-{[1-(4-{3-[2,6-difluoro-3-({[(3R)-3-fluoropyrroldiin-1-yl]sulfonyl}amino)benzoyl]-1H-pyrrolo[2,3-b]pyridin-5-yl}phenyl)piperidin-4-yl]methyl}-2,6-diazaspiro[3.3]heptan-2-yl)-N-[(3R)-2,6-dioxopiperidin-3-yl]-2-methoxybenzamide] | 50 to 500 nM | < 35% | 10 to 30 nM | > 70%
O=C1CC[C@@H](NC(=O)c2ccc(N3CC4(CN(CC5CCN(c6ccc(-c7cnc8[nH]cc(C(=O)c9c(F)ccc(NS(=O)(=O)N%10CC[C@@H](F)C%10)c9F)c8c7)cc6)CC5)C4)C3)cn2)C(=O)N1 [Compound 346, 5-(6-{[1-(4-{3-[2,6-difluoro-3-({[(3R)-3-fluoropyrrolidin-1-yl]sulfonyl}amino)benzoyl]-1H-pyrrolo[2,3-b]pyridin-5-yl}phenyl)piperidin-4-yl]methyl}-2,6-diazaspiro[3.3]heptan-2-yl)-N-[(3R)-2,6-dioxopiperidin-3-yl]pyridine-2-carboxamide] | 50 to 500 nM | < 35% | 1 to 10 nM | < 35%
O=C1CC[C@H](NC(=O)c2ccc(OCCCCN3CCN(c4ccc(-c5cnc6[nH]cc(C(=O)c7c(F)ccc(NS(=O)(=O)N8CC[C@@H](F)C8)c7F)c6c5)cc4)CC3)cc2F)C(=O)N1 [Compound 349, 4-{4-[4-(4-{3-[2,6-difluoro-3-({[(3R)-fluoropyrrolidin-1-yl]sulfonyl}amino)benzoyl]-1H-pyrrolo[2,3-b]pyridin-5-yl}phenyl)piperazin-1-yl]butoxy}-N-[(3S)-2,6-dioxopiperidin-3-yl]-2-fluorobenzamide] | > 500 nM | > 70% | > 30 nM | –
O=C1CCC(NC(=O)c2ccc(OCCCCN3CCN(c4ccc(-c5cnc6[nH]cc(C(=O)c7c(F)ccc(NS(=O)(=O)N8CC[C@@H](F)C8)c7F)c6c5)cc4)CC3)cc2F)C(=O)N1 (stereo partly drawn) [Compound 350, 4-{4-[4-(4-{3-[2,6-difluoro-3-({[(3R)-3-fluoropyrrolidin-1-yl]sulfonyl}amino)benzoyl]-1H-pyrrolo[2,3-b]pyridin-5-yl}phenyl)piperazin-1-yl]butoxy}-N-(2,6-dioxopiperidin-3-yl)-2-fluorobenzamide] | 50 to 500 nM | < 35% | > 30 nM | –
COc1cc(N2CCC(CN3CC4(C3)CN(c3ccc(-c5cnc6[nH]cc(C(=O)c7c(F)ccc(NS(=O)(=O)N8CC[C@@H](F)C8)c7F)c6c5)cc3)C4)CC2)ccc1C(=O)N[C@H]1CCC(=O)NC1=O [Compound 352, 4-(4-{[6-(4-{3-[2,6-difluoro-3-({[(3R)-3-fluoropyrrolidin-1-yl]sulfonyl}amino)benzoyl]-1H-pyrrolo[2,3-b]pyridin-5-yl}phenyl)-2,6-diazaspiro[3.3]heptan-2-yl]methyl}piperidin-1-yl)-N-[(3S)-2,6-dioxopiperidin-3-yl]-2-methoxybenzamide] | 5 to 50 nM | 35 to 70% | 1 to 10 nM | > 70%
O=C1CC[C@H](NC(=O)c2ccc(N3CCC(CN4CC5(C4)CN(c4ccc(-c6cnc7[nH]cc(C(=O)c8c(F)ccc(NS(=O)(=O)N9CC[C@@H](F)C9)c8F)c7c6)cc4)C5)CC3)cn2)C(=O)N1 [Compound 353, 5-(4-{[6-(4-{3-[2,6-difluoro-3-({[(3R)-3-fluoropyrrolidin-1-yl]sulfonyl}amino)benzoyl]-1H-pyrrolo[2,3-b]pyridin-5-yl}phenyl)-2,6-diazaspiro[3.3]heptan-2-yl]methyl}piperidin-1-yl)-N-[(3S)-2,6-dioxopiperidin-3-yl]pyridine-2-carboxamide] | 5 to 50 nM | 35 to 70% | 1 to 10 nM | 35 to 70%
O=C1CCC(NC(=O)c2ccc(N3CCC(CN4CC5(C4)CN(c4ccc(-c6cnc7[nH]cc(C(=O)c8c(F)ccc(NS(=O)(=O)N9CC[C@@H](F)C9)c8F)c7c6)cc4)C5)CC3)cn2)C(=O)N1 (stereo partly drawn) [Compound 354, 5-(4-{[6-(4-{3-[2,6-difluoro-3-({[(3R)-3-fluoropyrrolidin-1-yl]sulfonyl}amino)benzoyl]-1H-pyrrolo[2,3-b]pyridin-5-yl}phenyl)-2,6-diazaspiro[3.3]heptan-2-yl]methyl}piperidin-1-yl)-N-(2,6-dioxopiperidin-3-yl)pyridine-2-carboxamide] | 5 to 50 nM | < 35% | 1 to 10 nM | < 35%
O=C1CC[C@H](NC(=O)c2ccc(CCCN3CC4(C3)CN(c3ccc(-c5cnc6[nH]cc(C(=O)c7c(F)ccc(NS(=O)(=O)N8CC[C@@H](F)C8)c7F)c6c5)cc3)C4)cc2F)C(=O)N1 [Compound 355, 4-{3-[6-(4-{3-[2,6-difluoro-3-({[(3R)-3-fluoropyrrolidin-1-yl]sulfonyl}amino)benzoyl]-1H-pyrrolo[2,3-b]pyridin-5-yl}phenyl)-2,6-diazaspiro[3.3]heptan-2-yl]propyl}-N-[(3S)-2,6-dioxopiperidin-3-yl]-2-fluorobenzamide] | 50 to 500 nM | 35 to 70% | > 30 nM | –

More lines, now with the values ahead:

DC50 (BRAF V600E) | Dmax (BRAF V600E) | DC50 (BRAF G466V) | Dmax (BRAF G466V) | Structure (SMILES)
5 to 50 nM | 35 to 70% | 1 to 10 nM | > 70% | COc1cc(N2CC3(CN(CC4CCN(c5ccc(-c6cnc7[nH]cc(C(=O)c8c(F)ccc(NS(=O)(=O)N9CC[C@@H](F)C9)c8F)c7c6)cc5)CC4)C3)C2)ccc1C(=O)N[C@H]1CCC(=O)NC1=O [Compound 343, 4-(6-{[1-(4-{3-[2,6-difluoro-3-({[(3R)-3-fluoropyrrolidin-1-yl]sulfonyl}amino)benzoyl]-1H-pyrrolo[2,3-b]pyridin-5-yl}phenyl)piperidin-4-yl]methyl}-2,6-diazaspiro[3.3]heptan-2-yl)-N-[(3S)-2,6-dioxopiperidin-3-yl]-2-methoxybenzamide]
5 to 50 nM | 35 to 70% | 1 to 10 nM | > 70% | O=C1CC[C@H](NC(=O)c2ccc(N3CC4(CN(CC5CCN(c6ccc(-c7cnc8[nH]cc(C(=O)c9c(F)ccc(NS(=O)(=O)N%10CC[C@@H](F)C%10)c9F)c8c7)cc6)CC5)C4)C3)cn2)C(=O)N1 [Compound 345, 5-(6-{[1-(4-{3-[2,6-difluoro-3-({[(3R)-3-fluoropyrrolidin-1-yl]sulfonyl}amino)benzoyl]-1H-pyrrolo[2,3-b]pyridin-5-yl}phenyl)piperidin-4-yl]methyl}-2,6-diazaspiro[3.3]heptan-2-yl)-N-[(3S)-2,6-dioxopiperidin-3-yl]pyridine-2-carboxamide]
5 to 50 nM | 35 to 70% | 1 to 10 nM | > 70% | COc1cc(N2CC3(CN(CC4CCN(c5ccc(-c6cnc7[nH]cc(C(=O)c8c(F)ccc(NS(=O)(=O)N9CC[C@@H](F)C9)c8F)c7c6)cc5)CC4)C3)C2)cc(F)c1C(=O)N[C@H]1CCC(=O)NC1=O [Compound 347, 4-(6-{[1-(4-{3-[2,6-difluoro-3-({[(3R)-3-fluoropyrrolidin-1-yl]sulfonyl}amino)benzoyl]-1H-pyrrolo[2,3-b]pyridin-5-yl}phenyl)piperidin-4-yl]methyl}-2,6-diazaspiro[3.3]heptan-2-yl)-N-[(3S)-2,6-dioxopiperidin-3-yl]-2-fluoro-6-methoxybenzamide]
5 to 50 nM | 35 to 70% | 1 to 10 nM | > 70% | COc1cc(N2CC3(CN(CC4CCN(c5ccc(-c6cnc7[nH]cc(C(=O)c8c(F)ccc(NS(=O)(=O)N9CC[C@@H](F)C9)c8F)c7c6)cc5)CC4)C3)C2)cc(F)c1C(=O)NC1CCC(=O)NC1=O (stereo partly drawn) [Compound 348, 4-(6-{[1-(4-{3-[2,6-difluoro-3-({[(3R)-3-fluoropyrrolidin-1-yl]sulfonyl}amino)benzoyl]-1H-pyrrolo[2,3-b]pyridin-5-yl}phenyl)piperidin-4-yl]methyl}-2,6-diazaspiro[3.3]heptan-2-yl)-N-(2,6-dioxopiperidin-3-yl)-2-fluoro-6-methoxybenzamide]
5 to 50 nM | 35 to 70% | 1 to 10 nM | 35 to 70% | O=C1CC[C@H](NC(=O)c2ccc(N3CC4(CN(CC5CCN(c6ccc(-c7cnc8[nH]cc(C(=O)c9c(F)ccc(NS(=O)(=O)N%10CCC(F)(F)C%10)c9F)c8c7)cc6)CC5)C4)C3)cc2F)C(=O)N1 [Compound 351, 4-{6-[(1-{4-[3-(3-{[(3,3-difluoropyrrolidin-1-yl)sulfonyl]amino}-2,6-difluorobenzoyl)-1H-pyrrolo[2,3-b]pyridin-5-yl]phenyl}piperidin-4-yl)methyl}-2,6-diazaspiro[3.3]heptan-2-yl}-N-[(3S)-2,6-dioxopiperidin-3-yl]-2-fluorobenzamide]
